Values of other authors as cited in patent JPH06128153A, “トラニラスト軟膏組成物およびその製造方法” (Kissei Pharmaceutical Co Ltd, priority 1992, dated 1994).
Read-outs that look alike come from different tables or passages of the source.

Conditions: stated as known, no test described

| solubility in water | solubility in water (ナトリウム塩) | SMILES |
| --- | --- | --- |
| 極めて難溶 |  | COc1ccc(/C=C/C(=O)Nc2ccccc2C(=O)O)cc1OC [トラニラスト] |
|  | わずかしか溶解しない | COc1ccc(/C=C/C(=O)Nc2ccccc2C(=O)O)cc1OC [ナトリウム塩] |
